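Five compound concentrations were applied to cells in 96-well plates for 48 hours; endpoints were derived by simple linear interpolation of the resulting dose-response curve. Abbreviation: GI50, concentration required for 50% inhibition of growth. TGI: total growth inhibition.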 Where only a bound is given, the exact number is not on record here.

The subject of this assay is MDA-MB-468 breast. Kind of assay: DTP human tumour cell line panel, 48 h.
One may read the GI50 as the concentration that inhibits growth by half. Broadly, the TGI is the concentration giving total growth inhibition. Lower therefore signals greater sensitivity of the cells. Consider `Nc1nc2ccc([C@@H]3Nc4ccc5[nH]ncc5c4[C@H]4[C@H]5CCC(C5)[C@H]43)cc2s1`, for which the GI50 is 0.403 µM and the TGI turned out to be 2.53 µM.
Take `COC(=O)[C@]12CC[C@@H](C)[C@H](C)[C@@H]1C1=CC[C@@H]3[C@@]4(C)C(C=O)=C[C@@](C)(COC(C)=O)[C@@H]4[C@H](O)C[C@@]3(C)[C@]1(C)CC2`: the GI50 is 2.04 µM and the total growth inhibition concentration (TGI) stood at 4.4 µM.
On the same counts, the results for `C/C=C(\C)C(=O)O[C@@H]1C(O)[C@H]2OC(COC(=O)CCC(=O)CCCCCC[C@H](CCCCC)O[C@@H]3OC(C)[C@H](OC(C)=O)C(O)[C@H]3O2)[C@H]1OC(=O)/C=C/c1ccccc1` (some centres undefined) are under 0.01 µM and 1.18 µM.
On the same counts, the results for `CS(=O)(=O)N1CCN(Cc2cc3nc(-c4cccc5[nH]ncc45)nc(N4CCOCC4)c3s2)CC1` (tested in a mixture with another compound) are 0.109 µM and 0.697 µM.
The like results for `COc1ccc(C2NCCc3c2[nH]c2ccccc32)cc1CN1CCN(c2ccc(F)cc2)CC1` (centres undefined) were, in that order, 1.67 µM and 3.36 µM.
Regarding `COc1ccc2nc(NCCCNCCO)c3sc4ccc(F)cc4c(=O)c3c2c1`, the GI50 was 1.71 µM and the TGI was 3.28 µM.
On the same counts, the results for `CC(CN)[C@@H]1CC[C@]2(CO)CC[C@]3(C)[C@H](CC[C@@H]4[C@@]5(C)CCC(NCCO)C(C)(C)[C@@H]5CC[C@]43C)[C@@H]12` (some centres undefined) are 1.48 µM and 3.08 µM.
`C=C1C(=O)O[C@H]2[C@H]1CC/C(COC(=O)C(=O)c1c[nH]c3ccc(OC)cc13)=C\CC[C@@]1(C)O[C@@H]21`: the GI50 is 2.17 µM and the TGI is 4.77 µM.
As for `Nc1c(C(=O)c2cccc(OCCN3CCOCC3)c2)cnn1-c1ccc(F)cc1`, the GI50 was over 25 µM and the concentration for total growth inhibition (TGI) is over 25 µM.
`O=C1C(Cl)=C(Nc2ccc3cn[nH]c3c2)C(=O)c2ccccc21`: the GI50 was 1.14 µM and the TGI is 2.4 µM.
On the same counts, the results for `COc1ccc(/C=C(/C(=O)N2CCCC2)c2cc(OC)c(OC)c(OC)c2)cc1N` are 1.28 µM and over 100 µM.
On the same counts, the results for `CN1CCN(c2ccc(-c3cnc4c(-c5csc6ccccc56)cnn4c3)cc2)CC1` are over 15 µM and over 15 µM.
`N#CC1C(=N)Cc2ccccc2-c2ccccc21` (centres undefined): the GI50 is 3.15 µM and the total growth inhibition concentration (TGI) is 13.4 µM.
For the compound `COC(=O)c1c2c(c(C)[n+]([O-])c1C)C(=O)C=C(NCc1cccc(OC)c1)C2=O`, the concentration for 50% growth inhibition (GI50) is 0.257 µM and the total growth inhibition concentration (TGI) worked out at 0.797 µM.
Consider `CN1CCN(CC(=O)Nc2ccc3ncnc(Nc4ccc(Oc5cccc(C(F)(F)F)c5)c(Cl)c4)c3c2)CC1`, for which the GI50 is 1.16 µM and the TGI is 2.66 µM.
On to `CC[N+](CC)=c1ccc2nc3c(cc(NCc4ccccc4)c4ccccc43)oc-2c1`, for which the concentration for 50% growth inhibition (GI50) was 0.134 µM and the TGI is 1.07 µM.
For `Nc1ccc(C#Cc2cncnc2Nc2ccc(OCc3cccc(F)c3)c(Cl)c2)cc1`, the GI50 was 1.15 µM and the TGI was determined as 9.24 µM.
The like results for `Cc1ccc(S(=O)(=O)Oc2ccc3c4c(c(=O)oc3c2)CCCCC4)cc1` were, in that order, 2.77 µM and over 100 µM.
`N#C/C(=C\c1ccc(Br)cc1)n1nnc2cccc(F)c21`: the GI50 was 0.327 µM and the TGI amounted to 1.15 µM.
The like results for `O=C(Oc1ccc([N+](=O)[O-])cc1)N1CCN(Cc2cccc(Oc3ccccc3)c2)CC1` were, in that order, 19.1 µM and over 100 µM.
On the same counts, the results for `C=C(CNCCc1ccc(O)cc1)[C@@H]1CC[C@]2(CO)CC[C@]3(C)[C@H](CC[C@@H]4[C@@]5(C)CCC(=O)C(C)(C)[C@@H]5CC[C@]43C)[C@@H]12` are 1.53 µM and 3.1 µM.
On the same counts, the results for `Nc1ccn([C@H]2C[C@@H](O)[C@@H](CO)S2)c(=O)n1` are over 100 µM and over 100 µM.
In the case of `CCOC(=O)/C=C1\SC(=Nc2ccc(C#N)cc2)N(CCN2C(=O)/C(=C/C(=O)OCC)SC2=Nc2ccc(C#N)cc2)C1=O`, the GI50 was 3.1 µM and the TGI is 17.4 µM.
On the same counts, the results for `CCCCCCCCOc1ccc(/C=N/Nc2cc(C)nc3ccc(Cl)cc23)cc1` are 1.79 µM and 3.42 µM.
The like results for `COc1cc(NN=C(c2ccc(O)cc2)c2ccc(O)cc2)c([N+](=O)[O-])cc1[N+](=O)[O-]` were, in that order, 12.5 µM and 25 µM.
On the same counts, the results for `Cc1ccc(N=C2CSc3nnc(-c4csc5c4CCCC5)n3N2)cc1` are 0.142 µM and over 50 µM.
Regarding `CN(C)CCNC(=O)c1cccc2cc3ccccc3nc12`, the GI50 is 1.26 µM and the total growth inhibition concentration (TGI) is 4.21 µM.
In the case of `Cn1ccc(=Nc2ccc(NC(=O)c3ccc(N=c4ccn(C)c5ccc([N+](=O)[O-])cc45)cc3)cc2)cc1`, the GI50 was 7.28 µM and the TGI is over 100 µM.
The like results for `COc1ncc(-c2nc3c(n2C(C)C)[C@H](c2ccc(Cl)cc2)N(c2cc(Cl)cn(C)c2=O)C3=O)c(OC)n1` were, in that order, 18.2 µM and 71.4 µM.
The like results for `O=C(Nc1cnn2ccc(N3CCC[C@@H]3c3cc(F)ccc3F)nc12)N1CC[C@H](O)C1` were, in that order, over 100 µM and over 100 µM.
On the same counts, the results for `COc1cc2cc(Oc3ccc(NC(=O)Nc4ccccc4)cc3)c(C)nc2cc1OCCN1CCCCC1` are 5.64 µM and 10.8 µM.
`O=C1/C(=C/c2ccccc2)SC(=Nc2ccccc2)N1Nc1ccccc1`: the GI50 was 14 µM and the total growth inhibition concentration (TGI) is over 100 µM.
Take `NC1=NC(c2ccccc2)N=C(Nc2ccccc2)N1` (centres undefined): the GI50 was 44.4 µM and the TGI is over 100 µM.
Consider `COC(=O)c1ccc(=O)c2nc3/c(=C/O)c(O)cc(=O)c3[nH]c12`, for which the GI50 is 0.937 µM and the TGI was found to be 48.5 µM.
The like results for `Nc1nc2c(c3ncccc13)C(c1cccc(Cl)c1)Cc1ncccc1-2` (centres undefined) were, in that order, 1.61 µM and 22.7 µM.
The like results for `COc1ccc(-c2cnc(-c3ccc(F)cc3)[nH]2)cc1` were, in that order, 2.22 µM and 7 µM.
Turning to `CCNC(=O)Oc1ccc(/C(=C(/C)c2ccc(Cl)cc2)c2ccc(OCCN3CCCCCC3)cc2)cc1`, the GI50 is 1.44 µM and the TGI worked out at 3.07 µM.

(Values after PubChem BioAssay (NCI).)
